Assay results taken from ChEMBL document CHEMBL1150976, “The selectivity of protein kinase inhibitors: a further update” (Biochem J, 2007).

Target: T1, Aurora kinase C (Homo sapiens) (UniProt Q9UQB9)
T1 sequence (whole entry): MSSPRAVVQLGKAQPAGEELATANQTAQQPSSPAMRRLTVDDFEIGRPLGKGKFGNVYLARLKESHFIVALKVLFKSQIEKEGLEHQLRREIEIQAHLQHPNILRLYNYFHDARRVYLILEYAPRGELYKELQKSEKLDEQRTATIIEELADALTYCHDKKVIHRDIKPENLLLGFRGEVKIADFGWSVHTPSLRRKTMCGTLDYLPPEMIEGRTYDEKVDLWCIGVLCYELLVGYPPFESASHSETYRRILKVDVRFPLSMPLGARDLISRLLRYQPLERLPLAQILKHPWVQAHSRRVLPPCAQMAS
Test: Percentage Aurora C activity remaining in the presence of 2uM inhibitor

Activity: 79%
Compound: Cn1cc(C2=C(c3ccc(Cl)cc3Cl)C(=O)NC2=O)c2ccccc21
